According to ChEMBL document CHEMBL1255378, “Emergence of the plasmid-mediated quinolone resistance gene qnrS1 in Escherichia coli isolates in Greece” (2008):
In brackets after ≈: the same amount, converted by molar mass.

Assays:
[1] = system: Escherichia coli; test: Antimicrobial activity against qnrS1-positive ampicillin-resistant Escherichia coli isolate 8 expressing gyrA S83L/D87N and parC S80I mutants by Etest
[2] = system: Escherichia coli; test: Antimicrobial activity against qnrS1-positive multidrug-resistant Escherichia coli isolate 4 expressing gyrA S83L/D87N and parC S80I mutants by Etest
[3] = system: Escherichia coli; test: Antimicrobial activity against qnrS1-positive ampicillin and amoxicillin-resistant Escherichia coli isolate 6 expressing gyrA S83L/D87N and parC S80I mutants by Etest
[4] = system: Escherichia coli; test: Antimicrobial activity against qnrS1-positive ampicillin-resistant Escherichia coli isolate 7 expressing gyrA S83L/D87N and parC S80I mutants by Etest
[5] = system: Escherichia coli; test: Antimicrobial activity against qnrS1-positive multidrug-resistant Escherichia coli isolate 3 expressing beta-lactamase CTX-M-15, gyrA S83L/D87N and parC S80I mutant by Etest
[6] = system: Escherichia coli; test: Antimicrobial activity against Escherichia coli harboring plasmid carrying qnrS1 gene by Etest
[7] = system: Escherichia coli; test: Antimicrobial activity against qnrS1-positive multidrug-resistant Escherichia coli isolate 9 expressing gyrA S83L/D87N and parC S80I mutants by Etest
[8] = system: Escherichia coli; test: Antimicrobial activity against qnrS1-positive multidrug-resistant Escherichia coli isolate 10 expressing gyrA S83L/D87N and parC S80I mutants by Etest

## O=C(O)c1cn(C2CC2)c2cc(N3CCNCC3)c(F)cc2c1=O [CIPROFLOXACIN]
[1]
  MIC: 128 µg/mL (≈ 386 µM)
[2]
  MIC: 64 µg/mL (≈ 193 µM)
[3]
  MIC: 64 µg/mL (≈ 193 µM)
[4]
  MIC: 128 µg/mL (≈ 386 µM)
[5]
  MIC: 64 µg/mL (≈ 193 µM)
[6]
  MIC: 0.032 µg/mL (≈ 0.0966 µM)
[7]
  MIC: 128 µg/mL (≈ 386 µM)
[8]
  MIC: 128 µg/mL (≈ 386 µM)
